Reference: patent publication US10585087B2, “Method for evaluating and selecting agent for suppressing odors of sulfide compounds” (KAO CORPORATION, priority 2015, dated 2020)

Columns and labels:
olfactory receptor OR4S2 [1] = target: T1, olfactory receptor OR4S2 (Homo sapiens, UniProt Q8NH73); experiment: Luciferase reporter gene assay: suppression of OR4S2 response to DMDS or DMTS by test substance; type: cell-based; details: for response (Fold increase) of OR4S2 to DMTS in the presence of test substance: 300 μM DMTS, test substance 100 μM, FIG. 6; for response (Response %) of OR4S2 to DMDS in the presence of test substance: 1 mM DMDS, test substance 0 to 3000 μM, FIG. 5
T1 construct: expressed in transfected cells; host or cells: HEK293
T1 sequence (Q8NH73 1-311): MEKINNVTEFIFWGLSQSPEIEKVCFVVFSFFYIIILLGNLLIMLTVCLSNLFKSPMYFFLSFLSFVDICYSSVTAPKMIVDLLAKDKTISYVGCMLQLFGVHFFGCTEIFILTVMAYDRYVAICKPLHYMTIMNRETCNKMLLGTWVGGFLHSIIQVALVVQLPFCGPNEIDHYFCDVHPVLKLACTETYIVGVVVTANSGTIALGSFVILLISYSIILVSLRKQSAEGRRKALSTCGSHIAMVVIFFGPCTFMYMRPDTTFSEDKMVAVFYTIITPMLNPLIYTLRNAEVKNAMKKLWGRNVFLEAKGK
Experimental: By using the same procedure as in Example 1 (1) to (3), HEK293 cells expressing OR4S2 (SEQ ID NO: 2) were prepared. The response of the olfactory receptor to DMDS (the value fLuc/hRluc) was measured in the presence and absence of a test substance by using luciferase reporter gene assay in accordance with the procedure in Example 1 (4). The value fLuc/hRluc induced by a stimulus of single DMDS, (X), the value fLuc/hRluc for cells without a stimulus of DMDS, (Y), and the value fLuc/hRluc induced by a co-stimulus of DMDS and a test substance, (Z), were determined, and the intensity of the response (Response (%)) of the receptor to DMDS in the presence of a test substance was determined by using the following formula. Response (%)=(Z−Y)/(X−Y)×100 The experiment was performed independently three times, and the average value of the experiments was determined. The concentration of DMDS to be added to a culture was set at 1 mM, and the concentration of a test substance to be added was changed in the range of from 0 to 3000 μM.
For the response to DMTS, the value fLuc/hRluc to a stimulus of single DMTS, (X′), was divided by the value fLuc/hRluc for cells without a stimulus of DMTS, (Y), and the value obtained by the division, (X′/Y), was set as a value of the response to DMTS (Fold increase). To compare the effect of a test substance on the response to DMTS, the value fLuc/hRluc induced by a co-stimulus of DMTS and a test substance, (Z′), was similarly divided by the value fLuc/hRluc for cells without a stimulus, (Y), to calculate (Z′/Y) as Fold increase. The experiment was performed independently three times, and the average value of the experiments was determined. The concentration of DMTS to be added to a culture was set at 300 μM, and the concentration of a test substance to be added was set at 100 μM.

[2] = Sensory test of odor-suppressing effect for sulfide compounds; type: in vivo; details: for odor intensity of DMTS in sensory test: 0.01% (v/v) DMTS and 0.1% (v/v) test substance in mineral oil, 11 evaluators, FIG. 7B; for odor intensity of DMDS in sensory test: 0.1% (v/v) DMDS and 0.1% (v/v) test substance in mineral oil, 10 evaluators, FIG. 7A
Experimental: For each of DMDS, cis-4-heptenal, and 1,4-cineol, a 0.1% (v/v) solution in mineral oil was prepared. For DMTS, a 0.01% (v/v) solution in mineral oil was prepared. Two cotton balls were put in a 20 mL glass bottle (Maruemu Corporation, No. 6), and one cotton ball was impregnated with 30 μL of the DMDS or DMTS solution, and the other cotton ball was impregnated with 30 μL a solution of one of the OR4S2 antagonists. The glass bottle containing the cotton balls was covered with a lid, and left to stand at 37° C. for 1 hour, and thereafter used as a test sample for a sensory test. Glass bottles containing only a cotton ball impregnated with the DMDS or DMTS solution were prepared as reference samples, and a glass bottle containing only a cotton ball impregnated with mineral oil (Vehicle) was prepared as a control sample.
A sensory test was performed in a single-blinded mode with 10 evaluators for DMDS and 11 evaluators for DMTS. The test was initiated after two o'clock pm, which was 1.5 hours or longer after a meal. To prevent diffusion of a smell, the test was performed essentially under a fume hood. To eliminate the influence of adaptation to odors of sulfide compounds, the evaluators were appropriately checked for the intensity of recognition to the odor of DMDS or DMTS in the test, and rested as necessary. The evaluators were separated into two groups, and one group evaluated the odor-suppressing effect for DMDS or DMTS with respect to cis-4-heptenal and 1,4-cineol, in the order presented, and the other group evaluated it with respect to 1,4-cineol and cis-4-heptenal, in the order presented. Each test sample was replaced with another one after evaluation by each of three evaluators.
In evaluation of odors of test samples, the following criteria in five grades were set for each evaluator: “odor of DMDS (or DMTS) was 1: unidentifiable, 2: perceivable, 3: easily identifiable, 4: strong, 5: intolerably strong”, and the evaluators rated the odor intensity of DMDS (or DMTS) for each test sample in nine grades from 1.0 to 5.0 at an interval of 0.5, where the odor intensity of single DMDS (or DMTS) was assumed as 3. The average value of the evaluation results by the evaluators was determined.

olfactory receptor OR4S2 [3] = target: T1, olfactory receptor OR4S2; experiment: Luciferase reporter gene assay: response of olfactory receptor to sulfide compound; type: cell-based; details: for response of olfactory receptor OR4S2 (fold increase) in screen of 428 olfactory receptors / concentration dependence of the response of OR4S2: HEK293 cells expressing OR4S2; for response of olfactory receptor OR4S2 (fold increase) in screen of 428 olfactory receptors: 100 μM sulfide compound, FIG. 1; for concentration dependence of the response of OR4S2: different concentrations, FIG. 2
Text: A human olfactory receptor was cloned by using the PCR method with human genomic DNA (G1521: Promega Corporation) as a template on the basis of sequence information registered in GenBank. Each gene amplified through the PCR method was incorporated into a pENTR vector (Invitrogen) in accordance with the manual, and recombined, by utilizing the NotI and AscI sites present in the pENTR vector, with a pME18S vector at the NotI and AscI sites produced in the downstream of the Flag-Rho tag sequence of the pME18S vector.
An RTP1S gene (SEQ ID NO: 3) encoding RTP1S (SEQ ID NO: 4) was incorporated into the pME18S vector at the EcoRI and XhoI sites thereof.
HEK293 cells expressing any one of 428 human olfactory receptors were produced. A reaction solution with a composition shown in Table 2 was prepared and left to stand in a clean bench for 15 minutes, and then added to each well of a 96-well plate (BD Biosciences). Subsequently, 90 μL of HEK293 cells (3×10^5 cells/cm^2) was seeded in each well, and cultured in an incubator retained at 37° C. and 5% CO2 for 24 hours. As a control, cells with conditions for no expression of an olfactory receptor (Mock) were prepared and used in an experiment.
An olfactory receptor expressed on HEK293 cells increases the intracellular cAMP level through conjugation with the intracellular Gαs followed by resulting activation of adenylate cyclase. For smell response measurement in this study, luciferase reporter gene assay was used in which increase of the intracellular cAMP level is monitored as an emission value derived from a firefly luciferase gene (fluc2P-CRE-hygro). Transgenesis was simultaneously performed by using a product with a sea pansy luciferase gene fused to the downstream of the CMV promoter (hRluc-CMV), and the resultant was used as an internal standard to correct errors of transgenesis efficiency and the number of cells.
The medium was removed from the culture prepared in the above (3), and 75 μL of a solution containing a sulfide compound prepared with DMEM (NACALAI TESQUE, INC.) was added. The sulfide compound was 100 μM of dimethyl disulfide (DMDS) or dimethyl trisulfide (DMTS). The cells were cultured in a CO2 incubator for 3 hours to allow the luciferase gene to be sufficiently expressed in the cells. Measurement of the activity of luciferase was performed by using a Dual-Glo™ luciferase assay system (Promega Corporation) in accordance with an operation manual of the product. For each stimulus condition, the value fLuc/hRluc was calculated by dividing the emission value derived from firefly luciferase by the emission value derived from sea pansy luciferase. The value fLuc/hRluc derived from firefly luciferase and induced by a stimulus of a sulfide compound was divided by the value fLuc/hRluc for cells without a stimulus of a sulfide compound to calculate a fold increase, and the fold increase was used as an indicator of intensity of response.

SMILES | response (Fold increase) of OR4S2 to DMTS in the presence of test substance (olfactory receptor OR4S2 [1]) | response (Response %) of OR4S2 to DMDS in the presence of test substance (olfactory receptor OR4S2 [1]) | odor intensity of DMTS in sensory test [2] | odor intensity of DMDS in sensory test [2] | response of olfactory receptor OR4S2 (fold increase) in screen of 428 olfactory receptors (olfactory receptor OR4S2 [3]) | concentration dependence of the response of OR4S2 (olfactory receptor OR4S2 [3]) | further results
CC(C)C12CCC(C)(CC1)O2 [1,4-cineol, 1,4-Cineole] | suppressed the response of OR4S2 to DMTS | suppressed the response of OR4S2 to DMDS in a concentration-dependent manner | suppressed the odor intensity | suppressed the odor intensity |  |  | 
CSSC [DMDS, Dimethyl disulfide] |  |  |  |  | exhibits a specific response | in a concentration-dependent manner | 
CSSSC [DMTS, Dimethyl trisulfide] |  |  |  |  | exhibits a specific response | in a concentration-dependent manner | 
CC/C=C\CCC=O [cis-4-Heptenal, (Z)-Hept-4-enal] | suppressed the response of OR4S2 to DMTS | suppressed the response of OR4S2 to DMDS in a concentration-dependent manner | suppressed the odor intensity | suppressed the odor intensity |  |  | 
CSC [dimethyl sulfide (DMS), Dimethylsulfide] |  |  |  |  |  |  | response of OR4S2 (olfactory receptor OR4S2 [3]; concentration of 1 mM and 3 mM, FIG. 3): responded
CS [methylmercaptan, Methylmercaptan] |  |  |  |  |  |  | response of OR4S2 (olfactory receptor OR4S2 [3]; 3 mM, FIG. 4): did not respond
